From patent US9833423B2 (KOREA RESEARCH INSTITUTE OF CHEMICAL TECHNOLOGY, priority 2011, dated 2017)
In brackets after ≈: the same amount, converted by molar mass.

Experiments:
Coxsackie-virus B4 = assay: Cytopathic effect (CPE) inhibition assay; assay type: cell-based, Coxsackievirus B4; conditions: Enterovirus B, HeLa37, 48 h; Table 3; HeLa, 37° C., 2 days
Polio-virus 2 = assay: microbe, parasite or virus in culture; assay type: cell-based, Poliovirus 2; conditions: Enterovirus C, read-out: EC50 Polio-virus 2
Coxsackie-virus B3 = assay: Cytopathic effect (CPE) inhibition assay; assay type: cell-based, Coxsackievirus B3; conditions: Enterovirus B, HeLa37, 48 h; Table 3; HeLa, 37° C., 2 days; read-out: EC50 Coxsackie-virus B3
Coxsackie-virus A24 (DN) = assay: Cytopathic effect (CPE) inhibition assay; assay type: cell-based, Coxsackievirus A24; conditions: Enterovirus C, MRC5, 48 h; Table 3; MRC-5, 37° C., 2 days
Coxsackie-virus B1 = assay: Cytopathic effect (CPE) inhibition assay; assay type: cell-based, Coxsackievirus B1; conditions: Enterovirus B, HeLa37, 48 h; Table 3; HeLa, 37° C., 2 days; read-out: EC50 Coxsackie-virus B1
Polio-virus 3 = assay: microbe, parasite or virus in culture; assay type: cell-based, Poliovirus 3; conditions: Enterovirus C, HeLa37, 48 h, read-out: EC50 Polio-virus 3
in vitro = conditions: human, CC50
Coxsackie-virus A24 (HG) = assay: Cytopathic effect (CPE) inhibition assay; assay type: cell-based, Coxsackievirus A24; conditions: Enterovirus C, MRC5, 48 h; Table 3; MRC-5, 37° C., 2 days
[1] = in vivo; cited from earlier work
[2] = in vivo; cited from earlier work; remark: listed apart in the source
[3] = test system: 48 rhinovirus types and coxsackievirus A21, B3, enterovirus 70 and echovirus 11; conditions: cited from earlier work
[4] = cited from earlier work
Rhino 63 = assay: Multicycle CPE reduction assay; assay type: cell-based, rhinovirus 63; conditions: Enterovirus; 37° C. in HeLa cells
Method: (§1) The test compounds were evaluated for anti-picornavirus activity by a multicycle cytopathic effect (CPE) reduction assay. The antiviral activity was initially determined using an MTS [3-(4,5-dimethylthiazol-2-yl)-5-(3-carboxymethoxyphenyl)-2-(4-sulfophenyl)-2H-tetrazolium]-based CPE reduction assay.
(§2) In this regard, cells grown to confluence in 96-well plates were infected with 100 50% cell culture infective doses (CCID50) of virus. After an adsorption period of 2 hrs at 37° C., virus was removed and serial dilutions of the compounds were added. […] After removal of the medium, 90 μl of a culture medium and 10 μl of MTS-phenazine methosulfate (Promega, Leiden, The Netherlands) were added to each well. After an incubation period of 2 hrs at 37° C., the optical density (OD) of each well was read at 498 nm in a microplate reader.
(§3) CPE values for evaluating antiviral activity were calculated using the following Mathmatic Formula 3: […]
(§4) The 50% effective concentration (EC50) and the 50 cytotoxic concentration (CC50) were defined as the concentrations of compound that offered 50% protection against virus-induced CPE and that killed cells by 50%, respectively, and were calculated using logarithmic interpolation.

Entero 71 = assay: Multicycle CPE reduction assay; assay type: cell-based, enterovirus 71; conditions: Enterovirus A; 37° C. in RD cells
Method: as §1, §2, §3, §4

Entero-virus 70 = assay: Cytopathic effect (CPE) inhibition assay; assay type: cell-based, Enterovirus 70; conditions: Enterovirus D, MRC5, 48 h; Table 3; MRC-5, 37° C., 2 days
Rhino 15 = assay: Multicycle CPE reduction assay; assay type: cell-based, rhinovirus 15; conditions: Enterovirus; 37° C. in HeLa cells
Method: as §1, §2, §3, §4

Polio 1 = assay: microbe, parasite or virus in culture; assay type: cell-based, poliovirus 1; conditions: Enterovirus C, BGM, read-out: Polio 1 EC50
Rhino 89 = assay: Multicycle CPE reduction assay; assay type: cell-based, rhinovirus 89; conditions: Enterovirus; 37° C. in HeLa cells
Method: as §1, §2, §3, §4

[5] = test system: coxsackieviruses B3, A16, A9, and A21; assay: Multicycle CPE reduction assay, text summary; assay type: cell-based; conditions: Table 5; read-out: EC50 against coxsackieviruses B3, A16, A9, and A21
Method: as §1, §2, §3, §4

Rhino 39 = assay: Multicycle CPE reduction assay; assay type: cell-based, rhinovirus 39; conditions: Enterovirus; 37° C. in HeLa cells
Method: as §1, §2, §3, §4

Polio 3 = assay: microbe, parasite or virus in culture; assay type: cell-based, poliovirus 3; conditions: Enterovirus C, BGM, read-out: Polio 3 EC50
Rhino 2 = assay: Multicycle CPE reduction assay; assay type: cell-based, rhinovirus 2; conditions: Enterovirus; 37° C. in HeLa cells
Method: as §1, §2, §3, §4

Rhino 72 = assay: Multicycle CPE reduction assay; assay type: cell-based, rhinovirus 72; conditions: Enterovirus; 37° C. in HeLa cells
Method: as §1, §2, §3, §4

Rhino 14 = assay: Multicycle CPE reduction assay; assay type: cell-based, rhinovirus 14; conditions: Enterovirus; 37° C. in HeLa cells
Method: as §1, §2, §3, §4

Rhino 29 = assay: Multicycle CPE reduction assay; assay type: cell-based, rhinovirus 29; conditions: Enterovirus; 37° C. in HeLa cells
Method: as §1, §2, §3, §4

uninfected cell cultures = assay: Cytotoxicity (CC50), MTS-based multicycle CPE reduction assay, Experimental Example 2; assay type: cell-based; conditions: Table 5, listed as Ex. 19
Method: as §1, §2
(§5) CPE values for evaluating cytotoxicity were calculated using the following Mathmatic Formula 4: […]
as §4

[6] = as above; assay type: cell-based; conditions: Table 5
Method: as §1, §2, §5, §4

Coxsackie A21 = assay: Multicycle CPE reduction assay; assay type: cell-based, Coxsackievirus A21; conditions: Enterovirus C, A21, MRC5, read-out: Coxsackie A21 EC50
Rhino 41 = assay: Multicycle CPE reduction assay; assay type: cell-based, rhinovirus 41; conditions: Enterovirus; 37° C. in HeLa cells
Method: as §1, §2, §3, §4

Rhino 70 = assay: Multicycle CPE reduction assay; assay type: cell-based, rhinovirus 70; conditions: Enterovirus, HeLa, read-out: Rhino 70 EC50, 37° C. in HeLa cells
Method: as §1, §2, §3, §4

Echo 9 = assay: Multicycle CPE reduction assay; assay type: cell-based, echovirus 9; conditions: Enterovirus B, MRC5; 37° C. in MRC-5 cells
Method: as §1, §2, §3, §4

Rhino 86 = assay: Multicycle CPE reduction assay; assay type: cell-based, rhinovirus 86; conditions: Enterovirus; 37° C. in HeLa cells
Method: as §1, §2, §3, §4

Rhino 42 = assay: Multicycle CPE reduction assay; assay type: cell-based, rhinovirus 42; conditions: Enterovirus; 37° C. in HeLa cells
Method: as §1, §2, §3, §4

Coxsackie A16 = assay: Multicycle CPE reduction assay; assay type: cell-based, Coxsackievirus A16; conditions: Enterovirus A, A16, MRC5; 37° C. in MRC-5 cells
Method: as §1, §2, §3, §4

Rhino 9 = assay: Multicycle CPE reduction assay; assay type: cell-based, rhinovirus 9; conditions: Enterovirus; 37° C. in HeLa cells
Method: as §1, §2, §3, §4

Coxsackie B3 = assay: Multicycle CPE reduction assay; assay type: cell-based, Coxsackievirus B3; conditions: Enterovirus B, 37° C. in Vero cells
Method: as §1, §2, §3, §4

Echo 11 = assay: Multicycle CPE reduction assay; assay type: cell-based, echovirus 11; conditions: Enterovirus B; 37° C. in BGM cells
Method: as §1, §2, §3, §4

Rhino 45 = assay: Multicycle CPE reduction assay; assay type: cell-based, rhinovirus 45; conditions: Enterovirus, HeLa, 37° C. in HeLa cells
Method: as §1, §2, §3, §4

Rhino 85 = assay: Multicycle CPE reduction assay; assay type: cell-based, rhinovirus 85; conditions: Enterovirus; 37° C. in HeLa cells
Method: as §1, §2, §3, §4

CCCCC(=O)NC1(c2ccc(C(C)C)cc2OC(=O)CCCC)C(=O)c2ccccc2C1=O [Example 49, 2-(1,3-Dioxo-2-pentanamido-2,3-dihydro-1H-inden-2-yl)-5-isopropylphenyl pentanoate]
EC50 (Coxsackie-virus B4): < 0.01 µg/mL
EC50 (Polio-virus 2): < 1 µg/mL
EC50 (Coxsackie-virus B3): < 0.01 µg/mL
EC50 (Coxsackie-virus A24 (DN)): < 1 µg/mL
EC50 (Coxsackie-virus B1): < 0.01 µg/mL
EC50 (Polio-virus 3): < 1 µg/mL
CC50 (in vitro): > 100 µg/mL
EC50 (Coxsackie-virus A24 (HG)): < 1 µg/mL

Cc1cc(CCCCCOc2c(Cl)cc(C3=NCCO3)cc2Cl)on1 [WIN 54954]
metabolization and excretion [1]: rapid
side effects [2]: skin rash

CCOC(=O)/C=C/[C@H](C[C@@H]1CCNC1=O)NC(=O)[C@@H](CC(=O)[C@@H](NC(=O)c1cc(C)on1)C(C)C)Cc1ccc(F)cc1 [AG 7088]
concentration range with an effect in the cell culture [3]: nanomolar concentration range

CC(C)S(=O)(=O)n1c(N)nc2ccc(/C(=N/O)c3ccccc3)cc21 [Enviroxime]
therapeutic effects in clinical studies ([4]; clinical studies): insignificant or few therapeutic effects
pharmacokinetics in clinical studies ([4]; in vivo): bad
side effects in clinical studies ([4]; in vivo): unwanted side effects

CC(=O)Oc1cc(C(C)C)ccc1C1(OC(C)=O)C(=O)c2ccccc2C1=O [Example 19, Acetic acid 2-(2-acetoxy-4-isopropyl-phenyl)-1,3-dioxo-indan-2-yl ester]
EC50 (Rhino 63): > 50000 nM
EC50 (Entero 71): 100 ± 1.8 nM
EC50 (Entero-virus 70): < 0.01 µg/mL
EC50 (Rhino 15): > 50000 nM
EC50 (Polio 1): 790 ± 360 nM
EC50 (Rhino 89): > 50000 nM
EC50 [5]: 10 nM
EC50 (Rhino 39): > 50000 nM
EC50 (Polio 3): < 1000 nM
EC50 (Rhino 2): > 50000 nM
EC50 (Rhino 72): 4600 ± 92 nM
EC50 (Rhino 14): 450 ± 410 nM
EC50 (Rhino 29): > 50000 nM
EC50 (Coxsackie-virus B3): < 0.01 µg/mL
CC50 (uninfected cell cultures): > 100000 nM
CC50 at 3 days [6]: ≥ 100000 nM
EC50 (Coxsackie A21): 670 ± 130 nM
EC50 (Rhino 41): > 50000 nM
EC50 (Coxsackie-virus B1): < 0.01 µg/mL
EC50 (Rhino 70): 2000 ± 120 nM
melting point: 136 to 137 °C
EC50 (Echo 9): 17 ± 6.7 nM
EC50 (Rhino 86): 26000 ± 18000 nM
EC50 (Rhino 42): > 50000 nM
EC50 (Coxsackie A16): 64 ± 10 nM
EC50 (Rhino 9): > 50000 nM
EC50 (Polio-virus 3): < 1 µg/mL
EC50 (Coxsackie B3): < 10 nM
EC50 (Echo 11): 17 ± 7.8 nM
EC50 (Rhino 45): 4600 ± 8.3 nM
EC50 (Rhino 85): > 50000 nM
CC50 (in vitro): 17.7 µg/mL (≈ 46.5 µM)
EC50 (Coxsackie-virus A24 (HG)): < 1 µg/mL
